Measurements as given in article PMC11881559 (Antimicrobial Agents and Chemotherapy, 2025).

Columns and labels:
[1] = 12-lead ECG QTcF assessment and C-QT model; format: in vivo, human
Experimental: To evaluate the cardiotoxicity of the drug, 12-lead ECG was conducted at several time points: 0 h, 1 h, 2 h, 4 h, 24 h, 48 h, 72 h, and 96 h after dosing in the SAD, food-effect, and DDI studies. In the MAD study, 12-lead ECG data were collected on day 1 (0 h, 1 h, 2 h, 4 h, and 8 h after dosing) and on day 5 (0 h, 1 h, 2 h, 4 h, 24 h, 48 h, 72 h, and 96 h after dosing), as well as before dosing and 2 h after dosing on days 2–4. Three consecutive ECGs were performed at each of these time points. The QT interval was corrected using the Fridericia formula [QTcF = QT / (RR^0.33), where RR = 60/heart rate]. Descriptive statistics were applied to the number of participants with abnormal changes in QTcF after dosing compared to baseline, including: (i) absolute value of QTcF >450 ms; (ii) absolute value of QTcF >500 ms; (iii) 30 ms < ΔQTcF ≤ 60 ms; (iv) ΔQTcF >60 ms (ΔQTcF = QTcF after dosing − baseline).

[2] = Food-effect study, plasma PK; settings: for AUC0-t / AUC0-∞ / Cmax / MRT0-∞: mean (%CV); for t1/2: mean ± SD

O=C(NC1CCCC1)C(=O)[C@H](C[C@@H]1CCNC1=O)NC(=O)[C@@H]1[C@H]2CCC[C@H]2CN1C(=O)[C@@H](NC(=O)C(F)(F)F)C1CCCCC1 [RAY1216, leritrelvir]
participants with absolute value of QTcF exceeding 450 ms ([1]; 700 mg combined with ritonavir BID group): one | mean ΔΔQTcF ([1]; 700 mg combined with ritonavir BID, at average Cmax 9280 ng/mL, C-QT model, 90% CI: −1.6526–7.0164): 2.6819 ms | correlation between drug concentration and the QT interval ([1]; C-QT model analysis): no significant correlation | participants exceeding a ΔQTcF of 60 ms ([1]; all cohorts): no participants | upper limit of the 90% CI for the average ΔΔQTcF ([1]; at the average Cmax concentration in each cohort, C-QT model predicted): less than 10 ms | Tmax ([2]; 500 mg alongside 100 mg ritonavir, fasting): 2.5 h | Tmax ([2]; 500 mg alongside 100 mg ritonavir, high-fat food): 3.0 h | AUC0-t ([2]; 800 mg, Fast): 22,700 (38.9) ng·h/mL | AUC0-∞ ([2]; 800 mg, Fast): 23,000 (38.9) ng·h/mL | Cmax ([2]; 800 mg, Fast): 4,760 (31.6) ng/mL | MRT0-∞ ([2]; 800 mg, Fast): 7.01 (26.4) h | t1/2 ([2]; 800 mg, Fast): 7.72 ± 4.46 h | Tmax ([2]; 800 mg, Fast, median (range)): 1.5 (0.5, 3.0) h | AUC0-t ([2]; 800 mg, Fed): 34,100 (28) ng·h/mL | AUC0-∞ ([2]; 800 mg, Fed): 34,200 (27.9) ng·h/mL | Cmax ([2]; 800 mg, Fed): 8,510 (27.6) ng/mL | MRT0-∞ ([2]; 800 mg, Fed): 5.96 (22.2) h | t1/2 ([2]; 800 mg, Fed): 7.08 ± 3.61 h | Tmax ([2]; 800 mg, Fed, median (range)): 3.0 (1.0, 6.0) h | Tmax delayed by ([2]; 800 mg, feeding vs fasting condition): 1.5 h
